Where two headings read alike, the source gives them in different places.
Key:
[1] = system: experimental duodenal ulcers (cystamine) in rats; conditions: preparation 12 μg/kg twice a day, cymethidin 7 mg/kg a day
Method: 170 rats were used. […] The animals of the control group were injected with a physiological solution. The slaughter of the animals was effected in groups of 10 animals within different periods after the beginning of the experiment.

[2] = system: patients suffering from duodenal peptic ulcer
Method: The preparation was tested in clinic on 40 patients suffering from duodenal peptic ulcer. The control groups consisted of 20 patients treated with cymethidin in the daily dose of 800 mg. Only male patients were subjected to the treatment, their age varied from 22 to 56 years. The duration of the disease was different: from newly detected ulcer to 28 years of the disease. The diagnosis of the peptic ulcer was made on the basis of generally accepted clinical tests with an obligatory use of the gastroduodenoscopy. The gastroduodenoscopy was carried out prior to administration of the preparation and 14, 21 and 28 days thereafter (the two latter endoscopy were carried out only in the use of non-scarring ulcers).
The preparation was administered intramuscularly in a dose of 10-15 μg/kg in a 0.9% aqueous solution of sodium chloride twice a day (in the moring at 7 a.m. and in the evening at 19 p.m.). The treatment course was 14-28 days, the course dose of the preparation was 30-60 mg. Apart from the preparation, the patients were given no additional pharmaceuticals, antacids were also excluded.

CN/C(=N\CCSCc1nc[nH]c1C)NC#N [cymethidin]
ulcer index ([1]; 24 hrs, control 3.1): 1.6
ulcer index ([1]; 48 hrs, control 3.3): 1.6
ulcer index ([1]; 72 hrs, control 3.2): 1.5
ulcer index ([1]; 7 ds, control 1.8): 0.8
ulcer index ([1]; 14 ds, control 1.2): 0
time of complete healing of ulcers [1]: by the end of the second week
patients with pains still noted ([2]; by the end of the 2-nd week, cymethidin 800 mg daily): 35%
patients with healed ulcer ([2]; by the end of the 3-rd week, preparation 10-15 μg/kg i.m. twice a day, cymethidin 200 mg 4 times a day): 65%

— patent publication US4565805A, “Pharmaceutical preparation for the treatment of peptic ulcer” (priority 1984, dated 1986)
